The values below are quoted from earlier work in patent publication US7960102B2, “Regulated aptamer therapeutics” (Archemix Corp., priority 2002, dated 2011).

This data set concerns the target N1 aptamer. As to conditions: 10 nM labeled N1 aptamer, 1×SB, room temperature, three experiments; read-out: Kd of neomycin for aptamer (protection from T1 cleavage at G27).

The term Kd denotes the free concentration of one partner at which half of the binding sites on the other are occupied at equilibrium, for simple one-to-one binding. Consider neomycin, for which the Kd was 940 ± 60 nM.
